Assay results from PMC3938571, “Modulation of Basophils' Degranulation and Allergy-Related Enzymes by Monomeric and Dimeric Naphthoquinones” (PLoS ONE, 2014).

Tests used:
soybean lipoxidase = target: T1, soybean lipoxidase (Glycine max, UniProt P08170); test: Soybean lipoxidase inhibition, cell-free; type: biochemical, Glicine max (L.) Merr.; settings: mean±SEM; for inhibition at 183.5 µM: maximal inhibition; for IC50: cell-free assay
T1 construct: purchased Sigma-Aldrich (St. Louis, MO, USA) type V-S; host or cells: soybean (plant preparation)
T1 sequence (P08170 1-839): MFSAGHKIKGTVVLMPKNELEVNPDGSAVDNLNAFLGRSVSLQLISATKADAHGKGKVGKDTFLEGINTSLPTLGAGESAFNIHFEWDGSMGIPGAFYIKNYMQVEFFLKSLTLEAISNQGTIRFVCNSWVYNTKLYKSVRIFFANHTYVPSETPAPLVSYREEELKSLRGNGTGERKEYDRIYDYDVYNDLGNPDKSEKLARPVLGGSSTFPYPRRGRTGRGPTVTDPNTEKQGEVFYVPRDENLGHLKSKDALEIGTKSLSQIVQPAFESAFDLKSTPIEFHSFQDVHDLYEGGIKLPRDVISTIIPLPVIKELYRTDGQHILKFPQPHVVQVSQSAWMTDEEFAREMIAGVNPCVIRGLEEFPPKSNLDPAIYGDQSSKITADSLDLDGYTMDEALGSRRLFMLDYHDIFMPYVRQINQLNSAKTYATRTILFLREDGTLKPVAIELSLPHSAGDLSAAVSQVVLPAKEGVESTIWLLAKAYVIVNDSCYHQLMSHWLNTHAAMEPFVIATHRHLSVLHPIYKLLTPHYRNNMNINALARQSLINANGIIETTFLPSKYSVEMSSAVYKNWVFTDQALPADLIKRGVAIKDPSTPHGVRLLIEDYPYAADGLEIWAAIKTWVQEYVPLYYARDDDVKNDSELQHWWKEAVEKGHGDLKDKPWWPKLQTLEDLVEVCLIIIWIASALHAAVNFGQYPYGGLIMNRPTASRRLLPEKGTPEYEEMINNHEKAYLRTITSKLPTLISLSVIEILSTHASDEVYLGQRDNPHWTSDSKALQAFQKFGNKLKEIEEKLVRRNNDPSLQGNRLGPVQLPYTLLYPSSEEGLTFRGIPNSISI
Description: Lipoxidase catalyses the oxidation of linoleic acid to the conjugated diene, 13-hydroperoxy linoleic acid, which was measured spectrophotometrically at 234 nm on a UV/visible spectrophotometer (UNICAM Helios α). The blank was measured in a reaction mixture with 20 µl of individual naphthoquinones solution, 1 ml of phosphate buffer (pH 9) and 20 µl of soybean lipoxidase 500 U. After 5 min pre-incubation at room temperature, the reaction was started by addition of 50 µl of substrate (linoleic acid) at 2 mM in ethanol. The reaction time was 3 min.

RBL-2H3 cells [1] = test: IgE/antigen-induced RBL-2H3 basophils' degranulation (β-hexosaminidase release); type: cell-based, rat; settings: for Effect on IgE/antigen-induced degranulation (in words): naphthazarin 0.1 µM, plumbagin 1 µM
Description: RBL-2H3 cells were seeded at 3.0×10^5 cells/mL in 24-wells plate (1 mL/well), and assayed after 24h at near-confluent stage (∼90%). Two different degranulation stimuli were used: calcium ionophore A23187 500 ng/mL (1 µM) and an immunologic stimulus (100 ng/mL IgE anti-DNP followed by 100 ng/mL DNP-BSA) that we refer to as IgE/antigen (Fig. 2). […] Thus, the ability of naphthoquinones to reduce β-hexosaminidase release was quantified for both stimuli, whereas effects upon histamine were only quantified with the A23187 stimulus, given the low histamine release and poor signal to noise achieved with IgE/antigen.
When the IgE/antigen was used as stimulus, cells were incubated during 16 h with 100 ng/ml IgE anti-DNP and with individual naphthoquinones diluted in culture medium. After washing twice with Dulbecco's phosphate buffered saline (DPBS), cells were treated for 1 h, at 37°C, with 100 ng/ml DNP-BSA and with individual naphthoquinones diluted in EBSS supplemented with 0.1% BSA (Fig. 2A). After treatments, supernatants were collected in order to quantify released β-hexosaminidase and released histamine, while cell viability assay was performed on adherent cells.
(§1) The release of β-hexosaminidase from stimulated-RBL-2H3 cells was measured as previously described. In a 96-wells plate, 50 µl of substrate solution [p-nitrophenyl N-acetyl-D-glucosamine 1.3 mg/ml in citrate buffer (pH 4.5)] were added to 30 µl of supernatant. The plate was incubated at 37°C, during 1 h.

RBL-2H3 cells [2] = test: Calcium ionophore A23187-induced RBL-2H3 degranulation (β-hexosaminidase release); type: cell-based, rat; settings: for Effect on A23187 (calcium ionophore)-induced degranulation (in words): naphthazarin 0.1 µM, plumbagin 1 µM, diospyrin 10 µM, others at maximal tested concentrations
Description: RBL-2H3 cells were seeded at 3.0×10^5 cells/mL in 24-wells plate (1 mL/well), and assayed after 24h at near-confluent stage (∼90%). Two different degranulation stimuli were used: calcium ionophore A23187 500 ng/mL (1 µM) and an immunologic stimulus (100 ng/mL IgE anti-DNP followed by 100 ng/mL DNP-BSA) that we refer to as IgE/antigen (Fig. 2). Both stimuli induced degranulation, which was quantified by β-hexosaminidase and histamine release. With IgE/antigen, β-hexosaminidase release (p-nitrophenolate absorbance) increased by 65.4±6.8% above basal (n = 16; P<0.001), whereas histamine increased from the basal value of 0.156±0.151 µM towards 0.521±0.186 µM (n = 10; P<0.05). With A23187, β-hexosaminidase release increased by 187±18.9% above basal (n = 12; P<0.001), whereas histamine increased towards 2.43±0.330 µM (n = 12; P<0.001). Thus, the ability of naphthoquinones to reduce β-hexosaminidase release was quantified for both stimuli, whereas effects upon histamine were only quantified with the A23187 stimulus, given the low histamine release and poor signal to noise achieved with IgE/antigen.
Before treatment with A23187, cells were incubated with individual naphthoquinones during 15 min, at 37°C. After that, A23187 1 µM was added and cells incubated for 30 min, at 37°C (Fig. 2B). Compounds were freshly diluted prior to cell exposure using EBSS supplemented with 0.1% BSA [21]. β-hexosaminidase and histamine release was quantified in supernatants, whereas the MTT cell viability assay was performed on adherent cells.
as §1, with “h. The reaction was stopped by the addition of 80 µl of NaOH 0.5 M and the reaction product, p-nitrophenolate, was measured spectrophotometrically at 405 nm, in a microplate reader (Multiskan ASCENT Thermo®).” for “h.”

[3] = system: hyaluronidase from bovine tests (type IV-S; EC 3.2.1.35); test: Hyaluronidase inhibition, cell-free (Morgan-Elson); type: biochemical; settings: for Hyaluronidase inhibition (%): 100 µM, maximal inhibition, mean±SEM
Description: The reaction product, N-acetyl-sugar, was quantified according Morgan-Elson colour reaction with minor modifications. The Morgan-Elson reaction was started by addition of 25 µl disodium tetraborate 0.8 M and subsequent heating in a boiling water bath during 3 min. After cooling, 750 µl p-dimethylaminobenzaldehyde (DMAB) was added and the reaction mixture was incubated at 37°C for 20 min. […] The measurement was made spectrophotometrically, at 560 nm, in a microplate reader (Multiskan ASCENT Thermo®), [24]. Sodium cromoglycate was used as a positive control for inhibition.

RBL-2H3 cells [4] = type: cell-based; settings: rat
Description: Cell viability was assessed by the cellular dehydrogenases' dependent reduction of MTT to formazan, which was quantified by the measurement of optical density at 550 nm using a microplate reader (Multiskan ASCENT Thermo®), as described before.

[5] = system: peripheral blood mononuclear cells (PBMC); set-up: method as in PMID 21134493; settings: 5 µM; phytohemagglutinin-stimulated PBMC; cited from earlier work

SMILES: O=C1C=CC(=O)c2c(O)ccc(O)c21 [Naphthazarin, naphthazarin]
- inhibition at 183.5 µM (soybean lipoxidase): 54.4 ± 9.33%
- IC50 (soybean lipoxidase): 142 ± 27.1 µM
- inhibition at 0.1 µM (RBL-2H3 cells [1]; Rattus norvegicus, RBL-2H3, 0.1 µM, maximal inhibition, mean±SEM, read-out: Degranulation inhibition (%) IgE/antigen (decrease of β-hexosaminidase release)): 30.8 ± 3.82%
- Effect on IgE/antigen-induced degranulation (in words) (RBL-2H3 cells [1]): decreased IgE/antigen-induced degranulation
- inhibition at 0.1 µM (RBL-2H3 cells [2]; Rattus norvegicus, RBL-2H3, 0.1 µM, maximal inhibition, mean±SEM, read-out: Degranulation inhibition (%) A23187 (decrease of β-hexosaminidase release)): < 15%
- Effect on A23187 (calcium ionophore)-induced degranulation (in words) (RBL-2H3 cells [2]): failed to reduce ionophore-induced degranulation
- Hyaluronidase inhibition (%) [3]: 16.9±2.45 (100 µM) %

SMILES: CC1=CC(=O)c2c(O)cccc2C1=O [Plumbagin, plumbagin]
- inhibition at 183.5 µM (soybean lipoxidase): 49.8 ± 5.23%
- IC50 (soybean lipoxidase): > 184 µM
- Maximum non-toxic concentration (RBL-2H3 cells [4]): 1 µM
- inhibition at 1 µM (RBL-2H3 cells [1]; Rattus norvegicus, RBL-2H3, 1 µM, maximal inhibition, mean±SEM, read-out: Degranulation inhibition (%) IgE/antigen (decrease of β-hexosaminidase release)): < 15%
- Effect on IgE/antigen-induced degranulation (in words) (RBL-2H3 cells [1]): did not prevent degranulation
- Effect on cytokines production (in words) [5]: inhibited cytokines production
- inhibition at 1 µM (RBL-2H3 cells [2]; Rattus norvegicus, RBL-2H3, 1 µM, maximal inhibition, mean±SEM, read-out: Degranulation inhibition (%) A23187 (decrease of β-hexosaminidase release)): < 15%
- Effect on A23187 (calcium ionophore)-induced degranulation (in words) (RBL-2H3 cells [2]): did not prevent degranulation
- Hyaluronidase inhibition (%) [3]: < 15 (100 µM) %

SMILES: O=c1c(O)c(-c2ccc(O)c(O)c2)oc2cc(O)cc(O)c12 [Quercetin, reference compound]
- Concentration required to reduce β-hexosaminidase release (RBL-2H3 cells [2]; A23187 assay, 10-fold higher than in IgE/antigen assay): 100 µM

SMILES: O=C(O)c1cc(=O)c2c(OCC(O)COc3cccc4oc(C(=O)O)cc(=O)c34)cccc2o1 [sodium cromoglycate, Sodium cromoglycate, reference compound]
- Concentration required for complete hyaluronidase inhibition ([3]; positive control): 10 mM
